Data on 4 compounds can be found in ChEMBL document CHEMBL1201862, “PubChem BioAssay data set” (2004).

Experiment [1] concerns the target Paired box protein Pax-8 (Homo sapiens, UniProt Q06710). The experiment is described as follows: inhibitors of PAX8-driven TPO luciferase reporter, dose response, RMG-I cells, cherry-pick (AID 687027).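 Further: luciferase reporter driven by Pax8 target thyroperoxidase promoter measured by SteadyGlo luminescence.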 Type of experiment: functional, cell-based.
The target of experiment [2] is DNA damage-inducible transcript 3 protein (Mus musculus, UniProt P35639). Type of experiment: functional, Cricetulus griseus.
Experiment [3] addresses T1, Oxysterols receptor LXR-beta (Homo sapiens, UniProt P55055).
T1 sequence (P55055 whole entry): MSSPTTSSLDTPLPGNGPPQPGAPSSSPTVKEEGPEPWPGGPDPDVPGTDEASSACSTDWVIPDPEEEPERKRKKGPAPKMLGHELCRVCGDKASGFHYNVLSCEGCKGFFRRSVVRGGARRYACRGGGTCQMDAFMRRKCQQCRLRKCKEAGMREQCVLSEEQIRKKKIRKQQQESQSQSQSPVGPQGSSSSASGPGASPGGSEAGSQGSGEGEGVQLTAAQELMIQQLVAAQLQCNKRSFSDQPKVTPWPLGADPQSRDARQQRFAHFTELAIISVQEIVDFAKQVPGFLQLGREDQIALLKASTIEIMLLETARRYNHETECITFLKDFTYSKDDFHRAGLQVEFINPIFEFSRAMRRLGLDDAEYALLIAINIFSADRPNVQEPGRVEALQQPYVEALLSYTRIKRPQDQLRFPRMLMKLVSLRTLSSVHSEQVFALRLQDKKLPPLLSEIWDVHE
The experiment is described as follows: LXR agonists, Gal4 luciferase reporter, dose response, counter-screen for ssDAF-12 agonist project, cell-based, luminescence, HEK293, S. stercoralis campaign (AID 720737). Type of experiment: functional. As to conditions: read-out: IC50 (the source's name). On the technique in general: A reporter such as luciferase makes a cellular process visible.

Experiment [4] has as its target T2, Histone-lysine N-methyltransferase NSD2 (Homo sapiens, UniProt O96028).
T2 sequence (O96028 whole entry): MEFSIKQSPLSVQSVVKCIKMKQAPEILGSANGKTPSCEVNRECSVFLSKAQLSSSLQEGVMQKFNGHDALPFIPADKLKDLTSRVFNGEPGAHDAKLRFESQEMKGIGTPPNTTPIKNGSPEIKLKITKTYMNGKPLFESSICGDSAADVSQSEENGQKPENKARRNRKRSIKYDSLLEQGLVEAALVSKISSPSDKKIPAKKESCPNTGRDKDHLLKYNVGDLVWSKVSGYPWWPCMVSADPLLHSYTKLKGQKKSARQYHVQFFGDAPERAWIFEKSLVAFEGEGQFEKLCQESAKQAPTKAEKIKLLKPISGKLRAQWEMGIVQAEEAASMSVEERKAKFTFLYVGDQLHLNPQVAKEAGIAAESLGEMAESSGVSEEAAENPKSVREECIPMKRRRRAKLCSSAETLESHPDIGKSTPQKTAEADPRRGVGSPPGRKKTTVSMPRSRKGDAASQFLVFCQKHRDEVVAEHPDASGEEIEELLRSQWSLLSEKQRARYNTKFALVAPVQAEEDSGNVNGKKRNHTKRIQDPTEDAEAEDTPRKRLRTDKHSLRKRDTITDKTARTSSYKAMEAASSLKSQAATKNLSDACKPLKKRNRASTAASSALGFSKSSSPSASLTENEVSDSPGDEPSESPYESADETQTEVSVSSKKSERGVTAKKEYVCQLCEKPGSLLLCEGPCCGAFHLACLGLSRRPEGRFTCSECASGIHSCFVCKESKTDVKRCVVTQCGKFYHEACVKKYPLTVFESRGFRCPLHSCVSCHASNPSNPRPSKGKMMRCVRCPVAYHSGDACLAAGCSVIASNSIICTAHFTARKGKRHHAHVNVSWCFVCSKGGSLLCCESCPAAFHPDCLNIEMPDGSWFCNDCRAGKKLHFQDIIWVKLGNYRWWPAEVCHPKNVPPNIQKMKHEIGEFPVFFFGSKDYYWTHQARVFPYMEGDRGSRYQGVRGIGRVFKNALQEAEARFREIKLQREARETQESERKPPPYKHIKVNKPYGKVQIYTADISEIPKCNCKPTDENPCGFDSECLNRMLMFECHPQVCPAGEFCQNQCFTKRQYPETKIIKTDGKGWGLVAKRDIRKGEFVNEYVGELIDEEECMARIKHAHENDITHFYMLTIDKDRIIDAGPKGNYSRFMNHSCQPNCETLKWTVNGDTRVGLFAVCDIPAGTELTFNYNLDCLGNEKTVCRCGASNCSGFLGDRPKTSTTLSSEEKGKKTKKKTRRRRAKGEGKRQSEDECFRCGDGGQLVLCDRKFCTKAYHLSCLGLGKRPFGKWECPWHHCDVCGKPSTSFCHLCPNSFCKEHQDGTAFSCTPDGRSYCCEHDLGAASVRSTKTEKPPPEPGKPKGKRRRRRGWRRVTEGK
Type of experiment: biochemical.

Experiment [5] deals with Cystic fibrosis transmembrane conductance regulator/Golgi-associated PDZ and coiled-coil motif-containing protein (Homo sapiens, UniProt P13569+Q9HD26). Description: CAL PDZ peptide-binding inhibitors, dose response, biochemical, fluorescence polarization, Cerulean-tagged CAL PDZ, cherry-picks (AID 504773). (Fluorescence polarisation rises when a labelled molecule tumbles more slowly, as on binding a larger partner.)

A short description of experiment [6]: CAL PDZ domain peptide-binding inhibitors, dose response, biochemical, fluorescence polarization, untagged CAL PDZ, dry powder (AID 602255). Type of experiment: functional.

Activity calls are given as the source filed them. A value given as a limit tells only on which side of the number the result lay.

Paired box protein Pax-8, sequence (Q06710 whole entry): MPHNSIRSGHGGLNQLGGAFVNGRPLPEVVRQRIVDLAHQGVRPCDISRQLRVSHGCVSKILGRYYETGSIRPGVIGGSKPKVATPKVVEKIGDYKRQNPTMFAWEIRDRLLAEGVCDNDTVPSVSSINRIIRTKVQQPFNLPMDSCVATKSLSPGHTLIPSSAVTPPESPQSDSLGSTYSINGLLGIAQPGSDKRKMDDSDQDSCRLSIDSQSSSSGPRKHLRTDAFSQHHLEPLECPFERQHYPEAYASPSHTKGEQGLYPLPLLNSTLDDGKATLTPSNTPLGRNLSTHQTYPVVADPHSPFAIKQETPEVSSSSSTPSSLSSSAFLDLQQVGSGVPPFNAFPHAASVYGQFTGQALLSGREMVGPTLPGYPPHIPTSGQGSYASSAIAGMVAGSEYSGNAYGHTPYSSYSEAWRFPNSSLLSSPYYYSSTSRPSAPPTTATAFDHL
Cystic fibrosis transmembrane conductance regulator/Golgi-associated PDZ and coiled-coil motif-containing protein, sequence (P13569 whole entry, other chains not shown): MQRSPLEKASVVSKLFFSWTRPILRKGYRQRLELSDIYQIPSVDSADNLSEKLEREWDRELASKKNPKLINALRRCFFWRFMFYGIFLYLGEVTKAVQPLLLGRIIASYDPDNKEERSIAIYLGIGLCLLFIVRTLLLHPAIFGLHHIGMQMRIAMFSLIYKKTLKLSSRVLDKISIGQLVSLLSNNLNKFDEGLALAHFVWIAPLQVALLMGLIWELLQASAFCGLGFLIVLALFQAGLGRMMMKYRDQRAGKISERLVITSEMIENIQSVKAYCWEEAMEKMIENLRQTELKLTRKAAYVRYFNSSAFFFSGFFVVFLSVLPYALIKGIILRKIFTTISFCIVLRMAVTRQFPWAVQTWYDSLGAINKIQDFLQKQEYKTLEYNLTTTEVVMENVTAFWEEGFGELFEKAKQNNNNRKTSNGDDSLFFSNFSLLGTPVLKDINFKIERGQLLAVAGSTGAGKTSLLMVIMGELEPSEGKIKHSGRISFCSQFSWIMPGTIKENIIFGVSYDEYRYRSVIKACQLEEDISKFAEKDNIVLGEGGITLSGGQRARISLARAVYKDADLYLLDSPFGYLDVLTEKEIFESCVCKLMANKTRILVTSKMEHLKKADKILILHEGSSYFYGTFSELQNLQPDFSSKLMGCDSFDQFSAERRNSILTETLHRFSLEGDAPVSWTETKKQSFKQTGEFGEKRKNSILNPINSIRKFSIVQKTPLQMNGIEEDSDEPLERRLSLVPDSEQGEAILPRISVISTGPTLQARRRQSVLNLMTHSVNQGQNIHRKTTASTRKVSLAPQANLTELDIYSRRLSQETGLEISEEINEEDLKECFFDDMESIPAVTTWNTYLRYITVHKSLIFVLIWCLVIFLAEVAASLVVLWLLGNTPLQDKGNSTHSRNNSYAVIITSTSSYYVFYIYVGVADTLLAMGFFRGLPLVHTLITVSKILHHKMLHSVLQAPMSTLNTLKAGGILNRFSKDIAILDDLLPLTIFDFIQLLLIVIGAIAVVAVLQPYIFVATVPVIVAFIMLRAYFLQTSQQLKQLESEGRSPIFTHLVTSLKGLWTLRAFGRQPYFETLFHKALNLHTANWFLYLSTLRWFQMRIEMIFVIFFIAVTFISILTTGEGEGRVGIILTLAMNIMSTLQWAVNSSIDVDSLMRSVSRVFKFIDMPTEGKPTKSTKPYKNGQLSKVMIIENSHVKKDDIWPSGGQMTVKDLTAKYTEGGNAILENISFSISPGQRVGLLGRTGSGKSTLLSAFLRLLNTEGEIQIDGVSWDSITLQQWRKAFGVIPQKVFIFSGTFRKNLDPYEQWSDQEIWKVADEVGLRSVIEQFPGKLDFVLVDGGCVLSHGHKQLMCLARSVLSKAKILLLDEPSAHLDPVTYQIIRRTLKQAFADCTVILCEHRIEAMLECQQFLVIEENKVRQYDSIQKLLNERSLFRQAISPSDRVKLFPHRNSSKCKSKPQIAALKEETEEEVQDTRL
DNA damage-inducible transcript 3 protein, sequence (P35639 whole entry): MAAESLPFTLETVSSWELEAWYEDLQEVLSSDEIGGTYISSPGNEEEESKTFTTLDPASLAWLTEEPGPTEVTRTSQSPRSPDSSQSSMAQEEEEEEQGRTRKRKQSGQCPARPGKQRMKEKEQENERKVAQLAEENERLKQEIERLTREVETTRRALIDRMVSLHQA

As usually defined, the AC50 is the concentration giving half of the maximal activity seen. `Cc1nn(-c2ccccc2)c(Cl)c1CN(C(=O)CCl)c1ccc(Cl)cc1`: in experiment [1], the AC50 was 3.19 µM (active). The “Absolute IC50 (CHOP)” value in experiment [2] was found to be 10 µM.

Regarding `Oc1ccccc1/C=C/c1noc(-c2ccccc2O)n1`, in experiment [3], the EC50 was > 67.6 µM (inactive).

As for `Cc1cccc(N=Nc2ccc(N(C)C)cc2)c1`, the AC50 in experiment [4] is 14.2 µM (active).

As for `O=C(O)CSc1cc(NS(=O)(=O)c2ccc(Cl)cc2)c2ccccc2c1O`, the AC50 in experiment [5] was 30 µM (active); in experiment [6], 56.1 µM (active).
